These results are taken from patent US8853418B2, “Cyclopentylpyrazoles as N-type calcium channel blockers” (Janssen Pharmaceutica NV, priority 2012, dated 2014).

Experiment [1] deals with N-type calcium channel (α1B (Cav2.2), β3 and α2δ subunits) (Homo sapiens, UniProt Q00975). In words: Functional Assay: Antagonism of N-Type Calcium Channel (FDSS calcium mobilization, KCl depolarization). The format is cell-based. The gist of the method: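 HEK cells stably co-expressing α1B (Cav2.2), β3 and α2δ were loaded with calcium dye, then given compound with fluorescence recorded for 5 min before 50 mM KCl depolarisation and 3 min more reading. IC50 came from six-point curves of maximal fluorescence, normalised to KCl maximum and buffer minimum.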
Sequence of N-type calcium channel (α1B (Cav2.2), β3 and α2δ subunits) (Q00975 whole entry): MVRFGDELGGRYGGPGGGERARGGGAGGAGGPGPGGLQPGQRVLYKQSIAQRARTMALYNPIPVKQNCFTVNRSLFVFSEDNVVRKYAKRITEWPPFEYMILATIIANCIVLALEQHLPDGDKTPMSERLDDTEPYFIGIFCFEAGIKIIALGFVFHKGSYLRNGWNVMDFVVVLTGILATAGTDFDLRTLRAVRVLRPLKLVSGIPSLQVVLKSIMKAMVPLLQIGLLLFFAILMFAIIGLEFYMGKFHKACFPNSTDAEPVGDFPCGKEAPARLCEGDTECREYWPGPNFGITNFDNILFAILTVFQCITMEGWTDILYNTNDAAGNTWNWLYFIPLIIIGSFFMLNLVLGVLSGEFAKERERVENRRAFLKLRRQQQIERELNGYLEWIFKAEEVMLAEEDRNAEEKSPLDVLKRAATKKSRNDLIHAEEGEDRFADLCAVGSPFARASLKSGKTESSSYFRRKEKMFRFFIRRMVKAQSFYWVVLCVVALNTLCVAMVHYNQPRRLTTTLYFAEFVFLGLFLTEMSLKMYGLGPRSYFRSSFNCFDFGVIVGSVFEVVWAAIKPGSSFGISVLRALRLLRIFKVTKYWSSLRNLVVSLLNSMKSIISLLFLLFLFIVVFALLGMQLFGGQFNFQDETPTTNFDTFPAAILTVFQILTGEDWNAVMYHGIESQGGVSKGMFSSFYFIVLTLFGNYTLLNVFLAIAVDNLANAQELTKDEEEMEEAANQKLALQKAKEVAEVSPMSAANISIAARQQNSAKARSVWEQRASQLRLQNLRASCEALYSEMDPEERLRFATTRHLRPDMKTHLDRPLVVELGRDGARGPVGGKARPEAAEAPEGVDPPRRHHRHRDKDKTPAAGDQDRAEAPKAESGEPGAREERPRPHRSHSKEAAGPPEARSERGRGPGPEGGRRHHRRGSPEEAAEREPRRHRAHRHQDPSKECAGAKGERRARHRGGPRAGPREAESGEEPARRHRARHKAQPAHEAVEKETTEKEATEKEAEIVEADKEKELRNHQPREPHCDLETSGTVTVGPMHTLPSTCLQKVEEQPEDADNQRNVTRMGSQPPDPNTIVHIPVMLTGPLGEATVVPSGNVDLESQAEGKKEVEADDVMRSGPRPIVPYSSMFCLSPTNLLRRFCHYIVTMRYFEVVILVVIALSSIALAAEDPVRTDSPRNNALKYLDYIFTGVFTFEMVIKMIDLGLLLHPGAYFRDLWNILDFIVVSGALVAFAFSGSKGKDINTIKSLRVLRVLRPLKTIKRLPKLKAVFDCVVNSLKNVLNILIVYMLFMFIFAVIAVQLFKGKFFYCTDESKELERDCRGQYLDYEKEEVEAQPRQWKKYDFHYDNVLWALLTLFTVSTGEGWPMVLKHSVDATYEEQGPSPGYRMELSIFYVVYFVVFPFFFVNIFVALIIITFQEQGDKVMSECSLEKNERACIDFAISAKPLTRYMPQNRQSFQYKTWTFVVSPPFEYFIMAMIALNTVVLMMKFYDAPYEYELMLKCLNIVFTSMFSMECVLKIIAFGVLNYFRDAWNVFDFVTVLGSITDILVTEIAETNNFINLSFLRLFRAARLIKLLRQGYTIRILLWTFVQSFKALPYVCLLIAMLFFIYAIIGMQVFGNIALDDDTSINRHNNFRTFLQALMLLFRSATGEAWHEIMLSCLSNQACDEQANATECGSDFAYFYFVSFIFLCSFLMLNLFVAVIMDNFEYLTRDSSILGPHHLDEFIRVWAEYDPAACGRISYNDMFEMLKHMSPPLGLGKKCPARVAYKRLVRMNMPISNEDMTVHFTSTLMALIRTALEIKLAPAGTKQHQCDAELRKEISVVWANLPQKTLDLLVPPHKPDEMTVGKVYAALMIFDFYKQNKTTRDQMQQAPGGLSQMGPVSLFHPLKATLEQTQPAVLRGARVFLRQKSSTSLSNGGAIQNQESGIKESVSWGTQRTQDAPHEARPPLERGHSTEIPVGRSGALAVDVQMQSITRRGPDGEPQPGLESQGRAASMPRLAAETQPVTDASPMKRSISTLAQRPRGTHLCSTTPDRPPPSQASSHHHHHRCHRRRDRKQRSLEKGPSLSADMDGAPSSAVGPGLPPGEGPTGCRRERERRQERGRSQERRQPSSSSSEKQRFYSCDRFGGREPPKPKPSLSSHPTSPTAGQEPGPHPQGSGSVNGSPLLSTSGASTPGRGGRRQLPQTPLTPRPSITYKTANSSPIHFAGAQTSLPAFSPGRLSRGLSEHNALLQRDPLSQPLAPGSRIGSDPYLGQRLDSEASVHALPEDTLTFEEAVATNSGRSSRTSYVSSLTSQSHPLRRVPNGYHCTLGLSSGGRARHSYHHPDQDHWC
Sequence of N-type calcium channel (α1B (Cav2.2), β3 and α2δ subunits) (P54284 whole entry partner): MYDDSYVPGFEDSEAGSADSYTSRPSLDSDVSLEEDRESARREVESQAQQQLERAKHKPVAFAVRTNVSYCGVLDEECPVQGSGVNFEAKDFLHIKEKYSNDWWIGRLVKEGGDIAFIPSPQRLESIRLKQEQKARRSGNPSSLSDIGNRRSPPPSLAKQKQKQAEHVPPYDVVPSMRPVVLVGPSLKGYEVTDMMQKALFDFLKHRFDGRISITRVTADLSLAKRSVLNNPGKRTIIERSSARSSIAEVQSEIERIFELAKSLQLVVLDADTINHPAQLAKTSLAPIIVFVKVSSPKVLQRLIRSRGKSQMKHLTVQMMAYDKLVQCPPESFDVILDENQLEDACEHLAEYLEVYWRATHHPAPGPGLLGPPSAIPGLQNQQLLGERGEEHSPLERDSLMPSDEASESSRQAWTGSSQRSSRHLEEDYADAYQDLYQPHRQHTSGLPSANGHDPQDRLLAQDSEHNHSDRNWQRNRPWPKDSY
Sequence of N-type calcium channel (α1B (Cav2.2), β3 and α2δ subunits) (P54289 25-946 partner limits assumed): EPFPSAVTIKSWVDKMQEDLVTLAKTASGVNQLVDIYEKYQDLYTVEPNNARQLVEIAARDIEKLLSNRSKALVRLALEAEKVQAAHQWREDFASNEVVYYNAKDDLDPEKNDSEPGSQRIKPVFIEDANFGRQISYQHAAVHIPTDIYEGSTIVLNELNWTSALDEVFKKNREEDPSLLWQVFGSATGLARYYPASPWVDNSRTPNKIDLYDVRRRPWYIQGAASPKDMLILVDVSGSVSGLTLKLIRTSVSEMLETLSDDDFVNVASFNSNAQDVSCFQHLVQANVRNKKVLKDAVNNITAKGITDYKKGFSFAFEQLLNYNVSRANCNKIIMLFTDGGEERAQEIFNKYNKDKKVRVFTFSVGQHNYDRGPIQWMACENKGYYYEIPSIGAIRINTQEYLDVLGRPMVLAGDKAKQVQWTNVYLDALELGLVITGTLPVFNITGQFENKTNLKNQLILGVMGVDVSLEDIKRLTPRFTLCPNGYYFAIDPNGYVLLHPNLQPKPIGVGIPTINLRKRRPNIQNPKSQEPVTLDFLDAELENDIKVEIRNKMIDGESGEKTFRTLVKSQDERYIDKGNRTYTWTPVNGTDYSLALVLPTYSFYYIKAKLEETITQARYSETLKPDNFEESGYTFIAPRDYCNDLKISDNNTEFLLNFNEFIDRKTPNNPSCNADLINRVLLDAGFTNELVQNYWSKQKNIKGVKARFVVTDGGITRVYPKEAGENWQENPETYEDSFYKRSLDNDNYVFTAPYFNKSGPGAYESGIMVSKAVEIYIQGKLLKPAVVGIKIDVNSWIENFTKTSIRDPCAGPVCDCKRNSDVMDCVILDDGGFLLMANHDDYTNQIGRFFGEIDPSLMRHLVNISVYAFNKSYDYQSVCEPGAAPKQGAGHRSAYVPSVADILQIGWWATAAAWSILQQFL
Sequence of N-type calcium channel (α1B (Cav2.2), β3 and α2δ subunits) (P54289 947-1103 partner limits assumed): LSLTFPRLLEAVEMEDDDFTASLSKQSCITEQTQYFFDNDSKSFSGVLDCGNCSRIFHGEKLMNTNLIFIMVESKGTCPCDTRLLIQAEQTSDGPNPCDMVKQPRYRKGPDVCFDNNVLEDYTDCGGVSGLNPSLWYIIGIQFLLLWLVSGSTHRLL
Background: Calcium assays in cells follow changes in intracellular calcium, usually with a dye or a luminescent sensor.

Experiment [2] has as its target N-type calcium channel (Homo sapiens, UniProt Q00975). In words: Automated Electrophysiology Assay (QPatch-HT whole-cell patch clamp; low- and high-frequency stimulation). The format is cell-based. The following applies: 0.1 μM.
Experiment [3] deals with Complete Freund's Adjuvant (CFA)-Induced Hyperalgesia. The experiment is described as follows: Complete Freund's Adjuvant (CFA)-Induced Hyperalgesia, radiant heat. Format: in vivo, Sprague-Dawley rats. As to conditions: rat CFA radiant heat model of inflammatory pain; FIG. 1.

Broadly, the inhibition is the drop in the measured response relative to a control, in per cent. A word on the pIC50: it is the IC50 on a negative log10 scale, so that one unit is a factor of ten.

The structures appear in SMILES notation. pIC50: −log10 of the molar value. Like-named read-outs stand apart in the source and are kept apart here.

Sequence of N-type calcium channel (Q00975 whole entry): as the sequence (Q00975 whole entry) above
Sequence of N-type calcium channel (P54284 whole entry partner): as the sequence (P54284 whole entry partner) above
Sequence of N-type calcium channel (P54289 25-946 partner limits assumed): as the sequence (P54289 25-946 partner limits assumed) above
Sequence of N-type calcium channel (P54289 947-1103 partner limits assumed): as the sequence (P54289 947-1103 partner limits assumed) above

In the case of `COc1ccccc1-n1nc2c(c1-c1ccc(Cl)cc1)CC1(C2)OCC(C)(C)CO1` [Compound 71, 3-(4-chlorophenyl)-2-(2-methoxyphenyl)-5′,5′-dimethyl-2,6-dihydro-4H-spiro[cyclopenta[c]pyrazole-5,2′-[1,3]dioxane]], the inhibition at 0.33 µM in experiment [1] (0.33 μM) was 89%. The pIC50 in experiment [1] (HEK cell line, 50 mM KCl depolarization, six-point concentration-response, read-out: FDSS IC50) is 7.89. For the same molecule, the inhibition at 0.1 µM in experiment [2] (high-frequency stimulation (15th pulse), read-out: QPatch at High Frequency % Inhibition) was found to be 37%; in experiment [2] (low frequency, read-out: QPatch at Low Frequency % Inhibition), 21%. The antihyperalgesic effect result in experiment [3] was “antihyperalgesic effect”.
